Measurements published in ChEMBL document CHEMBL1154521, “2,3-Dihydrowithaferin A-3beta-O-sulfate, a new potential prodrug of withaferin A from aeroponically grown Withania somnifera” (2009).
Activity calls are given as the source filed them. No cut-off for these calls is given here.

Tests used:
WI-38 [1] = assay: Induction of F-actin aggregation in human WI38 cells after 24 hrs; assay type: functional, cell-based
MCF7 [2] = assay: Cytotoxicity against human MCF7 cells by MTT assay; assay type: functional
MCF7 [3] = assay: Cytotoxicity against human MCF7 cells after 72 hrs by MTT assay; assay type: functional, cell-based
[4] = Growth inhibition of human NCI60 cells; assay type: functional
WI-38 [5] = assay: Induction of F-actin aggregation in human WI38 cells after 4 hrs; assay type: functional, cell-based
[6] = target: T1, Heat shock factor protein 1 (Mus musculus) (UniProt P38532); assay: Induction of HSF1-mediated heat-shock protein 72 expression in mouse fibroblast with plasmid EGFP at 2 uM after overnight incubation by micro plate fluorometer
T1 sequence (whole entry): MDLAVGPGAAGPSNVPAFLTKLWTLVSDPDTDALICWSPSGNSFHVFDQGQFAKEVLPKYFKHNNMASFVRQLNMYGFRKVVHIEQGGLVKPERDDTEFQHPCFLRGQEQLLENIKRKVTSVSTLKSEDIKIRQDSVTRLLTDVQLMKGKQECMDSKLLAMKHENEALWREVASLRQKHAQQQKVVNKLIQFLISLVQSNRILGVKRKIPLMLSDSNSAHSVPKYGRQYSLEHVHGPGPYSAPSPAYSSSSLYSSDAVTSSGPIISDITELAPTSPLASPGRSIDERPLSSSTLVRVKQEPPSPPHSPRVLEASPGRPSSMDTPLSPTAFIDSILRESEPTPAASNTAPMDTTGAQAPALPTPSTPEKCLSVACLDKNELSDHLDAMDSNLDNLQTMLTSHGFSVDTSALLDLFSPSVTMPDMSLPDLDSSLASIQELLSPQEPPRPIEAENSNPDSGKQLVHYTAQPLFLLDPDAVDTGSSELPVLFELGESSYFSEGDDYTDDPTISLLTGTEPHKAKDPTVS

Row | SMILES | Activity (WI-38 [1]) | inhibition (INH) (MCF7 [2]) [%] | Activity (MCF7 [3]) | GI50 [4] [nM] | Activity (WI-38 [5]) | Activity [6]
1 | CC1=C(CO)C(=O)O[C@@H]([C@@H](C)[C@H]2CC[C@H]3[C@@H]4C[C@H]5O[C@]56[C@@H](O)[C@@H](OS(=O)(=O)O)CC(=O)[C@]6(C)[C@H]4CC[C@]23C)C1 | inactive |  |  |  |  | 
2 | CC1=C(CO)C(=O)O[C@@H]([C@@H](C)[C@H]2CC[C@H]3[C@@H]4C[C@H]5O[C@]56[C@@H](O)C=CC(=O)[C@]6(C)[C@H]4CC[C@]23C)C1 [WITHAFERIN A] |  | 50 | Active | 620 | Active | Active
